Data: article PMC5328627 (Journal of natural products, 2009)

How the values were obtained:
Type in all cases: cell-based, human
NCI-H522 = conditions: non-small cell lung cancer cell line; single high dose 10^−5 M
UO-31 = conditions: renal cancer cell line; single high dose 10^−5 M
IGROV1 = conditions: ovarian cancer cell line; single high dose 10^−5 M

## cyclo(ATPFVPP) (SMILES CC(C)[C@@H]1NC(=O)[C@H](Cc2ccccc2)NC(=O)[C@@H]2CCCN2C(=O)[C@H]([C@@H](C)O)NC(=O)[C@H](C)NC(=O)[C@@H]2CCCN2C(=O)[C@@H]2CCCN2C1=O) [compound 2, euryjanicin B]
NCI-H522
  Percent growth of NCI-H522: 83.9%
UO-31
  Percent growth of UO-31: 76.3%
IGROV1
  Percent growth of IGROV1: 91.3%

## cyclo(FSPIFPI) (SMILES CC[C@H](C)[C@@H]1NC(=O)[C@@H]2CCCN2C(=O)[C@H](CO)NC(=O)[C@H](Cc2ccccc2)NC(=O)[C@H]([C@@H](C)CC)NC(=O)[C@@H]2CCCN2C(=O)[C@H](Cc2ccccc2)NC1=O) [compound 4, euryjanicin D]
NCI-H522
  Percent growth of NCI-H522: 94.6%
UO-31
  Percent growth of UO-31: 82.7%
IGROV1
  Percent growth of IGROV1: 100%

## cyclo(SIPLFPI) (SMILES CC[C@H](C)[C@@H]1NC(=O)[C@@H]2CCCN2C(=O)[C@H](Cc2ccccc2)NC(=O)[C@H](CC(C)C)NC(=O)[C@@H]2CCCN2C(=O)[C@H]([C@@H](C)CC)NC(=O)[C@H](CO)NC1=O) [compound 3, euryjanicin C]
NCI-H522
  Percent growth of NCI-H522: 95.1%
UO-31
  Percent growth of UO-31: 83.4%
IGROV1
  Percent growth of IGROV1: 100%

## dominicin [compound 5]
NCI-H522
  Percent growth of NCI-H522: 100%
UO-31
  Percent growth of UO-31: 32.8%
IGROV1
  Percent growth of IGROV1: 100%

## euryjanicin A [compound 1]
NCI-H522
  Percent growth of NCI-H522: 72.2%
UO-31
  Percent growth of UO-31: 73.6%
IGROV1
  Percent growth of IGROV1: 82.6%
